# Activity calls are given as the source filed them. The rule behind the calls is not given here.
# Tested on: not listed separately
# Assay: rescue of alpha-synuclein yeast toxicity, dose response, S. cerevisiae, plate reader, cherry-pick (AID 602273)
# Conditions: S. cerevisiae alpha-synuclein toxicity rescue, OD600 growth, 24 h; at 26 µM (top of the series)
row,Compound,growth rescue activity
1,CC(C)(C)c1ccc(COc2ccsc2C(=O)O)cc1,-21.6% (inactive)
2,CCOC(=O)c1c(C)c(C(=O)Nc2ccc3c(c2)OCO3)c(C)n1C,2.62% (inactive)
3,CCOC(=O)Nc1ccc(C(=O)Oc2ccccc2)c(O)c1,-4.86% (inactive)
4,Cc1cccc(-c2cc(C(=O)Nc3ccncc3)c3ccccc3n2)c1,1.56% (inactive)
5,CC1(C)CC(=O)C(=Cc2cn(-c3ccccc3)nc2-c2ccccc2)C(=O)C1,1.64% (inactive)
6,COc1ccc(S(=O)(=O)n2nc(OC(=O)c3ccccc3Br)cc2N)cc1,-9.27% (inactive)
7,Cc1ccc(-n2cc(CNCCN3CCOC3=O)c(-c3cccc(C)c3)n2)cc1,0.352% (inactive)
8,CCc1c(C)sc(NC(=O)c2ccc(Br)o2)c1C(=O)OC,5.35% (inactive)
9,CCC(=O)Nc1cccc(C(=O)/C=C/c2ccc(F)cc2)c1,-9.73% (inactive)
10,Cn1cc([N+](=O)[O-])c(C(=O)Nc2ccc(-c3nc4ccccc4[nH]3)cc2)n1,-1.83% (inactive)
11,CCOC(=O)CC(=O)CSCC(=O)Nc1ccc(C)cc1,-1.13% (inactive)
12,Brc1cnc2nc(SC/C=C/c3ccccc3)[nH]c2c1,0.58% (inactive)
13,N#Cc1ccc(OCCN2CCc3ccccc3C2)cc1,4.6% (inactive)
14,CC1CC(C)(C)N(C(=O)NC2CCCCC2)c2ccccc21 (centres undefined),12.6% (inactive)
15,O=C(Nc1ccccc1C(=O)OCC(=O)c1c[nH]c2ccccc12)c1ccco1,5.29% (inactive)
16,CCn1c(SCC(=O)c2ccc(Cl)cc2)nnc1-c1ccoc1C,2.33% (inactive)
17,O=C(NC1CCSc2ccccc21)c1ccccc1Cl (centres undefined),-4.11% (inactive)
18,O=C(Nc1ccc2c(c1)C(=O)OC2)c1ccc(Cl)cc1,-1.79% (inactive)
19,O=c1[nH]n(CC2COC3(CCCCC3)O2)c(=O)c2ccccc12 (centres undefined),-3.22% (inactive)
20,O=C(NCc1cccc(F)c1)c1noc2c1CCCC2,10.6% (inactive)
21,Cc1cccc(NCc2nc3ccccc3n2C)c1,-1.89% (inactive)
22,CC(C)C(=O)N1CCC(n2nccc2NC(=O)CCOc2ccccc2)CC1,-1.45% (inactive)
23,COc1ccc(C(=O)Cn2c(C(=O)/C=C/c3ccccc3)nc3ccccc32)cc1,1.68% (inactive)
24,COc1ccc(C(c2c(O)ccc3ccccc23)N2CCOCC2)c(OC)c1 (centres undefined),-24.5% (inactive)
25,CC(=O)Nc1cccc(NC(=O)CSc2ncc(C(=O)Nc3ccccc3)c(=O)n2C)c1,-9.48% (inactive)
26,O=C1C2CC=CCC2C(=O)N1c1ccc(NCCc2ccccc2)c([N+](=O)[O-])c1 (centres undefined),11.8% (inactive)
27,Oc1[nH]c(N=C2N=c3ccccc3=N2)c2ccccc12,-26.4% (inactive)

# Tested on: S. cerevisiae alpha-synuclein toxicity rescue, OD600 growth, 24 h
# Assay: as above
# Conditions: not given
row,Compound,AC40
1,O=C(CSc1nnc(-c2c[nH]c3ccccc23)o1)c1ccccc1,> 26 µM (inactive)
2,COc1cccc(CNc2ccc(Br)cn2)c1O,> 26 µM (inactive)
3,O=[N+]([O-])c1cccc(-c2ncc3ccccn23)c1,> 26 µM (inactive)
4,COc1cccc(NC(=S)NC(=O)c2c(Cl)c(C)nn2C)c1,> 26 µM (inactive)
5,Cc1ccc2oc(C(=O)N3CCC(O)(c4cccc(C(F)(F)F)c4)CC3)c(C)c2c1,> 26 µM (inactive)
6,Clc1ccc(SCc2csc(N3CCOCC3)n2)cc1,> 26 µM (inactive)
7,O=c1[nH]c2ccccc2c2cn(-c3ccccc3)nc12,23.4 µM
8,CSc1sc(C(=O)Nc2ccc(F)cc2F)c2c1C=CCC2,> 26 µM (inactive)
9,O=c1c2sccc2nc(SCc2ccc([N+](=O)[O-])cc2)n1Cc1ccccn1,> 26 µM (inactive)
10,Fc1cc(NCc2ccccc2)nc(NCc2ccccc2)n1,> 26 µM (inactive)
11,CCOC(=O)c1nnsc1Nc1ccc(C)c(C)c1,> 26 µM (inactive)
12,Cc1ccccc1CSc1nsc(N)n1,14.5 µM
13,Cc1cc(-c2nc3ncccc3o2)ccc1NC(=S)NC(=O)C(C)C,> 26 µM (inactive)
14,CC1(C)CC(=O)C=C(NC2=CC3OC(c4ccccc4)OCC3OC2=O)C1 (centres undefined),> 26 µM (inactive)
15,CC(C)c1ccc(C2NC(=O)c3ccccc3O2)cc1 (centres undefined),12.1 µM
16,CN1CCN(Cc2c(O)ccc3cc(Br)ccc23)CC1,> 26 µM (inactive)
17,O=C1C=C(c2ccccc2)CC(/C=C/c2ccccc2)C1 (centres undefined),> 12 µM (inactive)

# Source: PubChem BioAssay AID602273 (Broad Institute, 2012)
